Measured values: article PMC11462456 (Chemical Science, 2024)

Experiments:
A549 cells = test: MTT cell viability with and without washout; type: cell-based, human
Experimental: Figure S6 Dual-ligand PROTAC activity is not caused by enhanced BRD-inhibition by dual JQ1
display. A549 cells were treated with an escalating dose of 2J2V, 2J-N3 and JQ1, respectively, for 8h.
Subsequently, cells were either washed and cultured in fresh medium, or left untouched. After a total
of 48h, cell viability was measured by MTT assay (n=6). […]

HCT116 cells = test: CellTiter-Glo 2D metabolic activity assay, HCT116; type: cell-based; details: Homo sapiens, HCT-116, 2D culture, 48 h
Experimental: (§1) 4.4 Cell viability assay on 2D cells cultures
HEK293, HCT116, A549,andSKOV-3 cells were seeded in 96-well tissue culture plates at a density of 2000-3000 cells per well in 100 µl of growth medium and incubated overnight at 37 °C with 5% CO2. The following day, the cells were treated with various concentrations of compounds or 0.05% DMSO for 48 h. After treatment, add 100 μl of Cell Titer-Glo® 2.0 Reagent (cat. no. G9243, Promega) in each well, then the 96-well plates were put on an orbital shaker for 10 min and then allow the plate to incubate at room temperature for 10-20min to stabilize the luminescent signal. Luminescence readout (Gen5 Data Analysis Software v3.08.01) was performed to record luminescence.
(1 picture or pasted object on this page, not shown here)

HEK293 cells = test: CellTiter-Glo 2D metabolic activity assay, HEK293; type: cell-based; details: Homo sapiens, 2D culture, 48 h
Experimental: Figure S5 Homo-degradation effect in Dual-ligand PROTACs. HEK293 cells were treated with all synthesized PROTACs or 2V-alkyne/2P-alkyne for 4 hours. Subsequently, cell lysates were prepared and the protein levels of CRBN or VHL E3 ligase were assessed by Western blotting. (A) Representative image of CRBN or VHL E3 ligase homo-degradation was screened for all PROTACs and commercial single-ligand PROTACs at a concentration of 0.1, 1 and 10 µM, respectively (equivalent volume of DMSO as control group). (B) Representative image of CRBN or VHL E3 ligase homo-degradation was screened for 2P-alkyne or 2V-alkyne at a concentration of 0.1, 1 and 10 µM, respectively (equivalent volume of DMSO as control group). Experiments were performed as three independent replicates.
as §1
HEK293, HCT116, A549,andSKOV-3 cells were seeded in 96-well tissue culture plates at a density of 2000-3000 cells per well in 100 µl of growth medium and incubated overnight at 37 °C with 5% CO2. The following day, the cells were treated with various concentrations of compounds or 0.05% DMSO for 48 h. […] Luminescence readout (Gen5 Data Analysis Software v3.08.01) was performed to record luminescence. […]

A549 spheroids = test: CellTiter-Glo 3D assay on spheroids; type: cell-based; details: Homo sapiens, 72 h, read-out: EC50, spheroid metabolic activity
Experimental: 4.5 Cell viability assay on 3D cell cultures
The single cell suspension containing 2.5 ×10^4 cells/ml of A549 or 2 ×10^4 cells/ml of HCT116 were seeded into the U-shaped, 384-well ULA plates (cat. no. MS-9384UZ, S-bio), each well containing 80 μl single cell suspension. The 384-well ULA plates were sealed with Breath-Easy semipermeable tape (cat. no. BEM-1, Diversified Biotech) to prevent evaporation. The spheroids were put into incubator and then cultured at 37 °C and 10% CO2. After 48h of spheroids formation, the spheroids were treated with various concentrations of compounds or 0.05% DMSO. After 72h treatment, each spheroid in the culture medium was pipetted into white micro-96-well plates (cat. no. 236108, ThermoFisher) and an equal volume of Cell Titer-Glo 3D (cat. no. G9683, Promega) reagent was added. Luminescence readouts were the same as described above for 2D culture.

Row | SMILES | cytotoxic activity (A549 cells; 48 hours) | cytotoxic potency after washout (A549 cells; washout after 8 hours, 48 hours total) | EC50 (HCT116 cells) [nM] | EC50 (HEK293 cells) [nM] | EC50 (A549 spheroids) [nM]
1 | Cc1ncsc1-c1ccc(C(C)NC(=O)C2CC(O)CN2C(=O)C(NC(=O)COCCOCCNC(=O)CC(NC(=O)CCc2cn(CCOCCOCCOCCOCC(=O)NC(CC(=O)NCCOCCOCCNC(=O)CC3N=C(c4ccc(Cl)cc4)c4c(sc(C)c4C)-n4c(C)nnc43)C(=O)NCCOCCOCCNC(=O)CC3N=C(c4ccc(Cl)cc4)c4c(sc(C)c4C)-n4c(C)nnc43)nn2)C(=O)NCCOCCOCC(=O)NC(C(=O)N2CC(O)CC2C(=O)NC(C)c2ccc(-c3scnc3C)cc2)C(C)(C)C)C(C)(C)C)cc1 (centres unmarked) [2J2V] | much more potent | largely retained its potency after washout | – | – | –
2 | Cc1ncsc1-c1ccc(CNC(=O)C2CC(O)CN2C(=O)C(NC(=O)COCCOCCOCCNC(=O)CC2N=C(c3ccc(Cl)cc3)c3c(sc(C)c3C)-n3c(C)nnc32)C(C)(C)C)cc1 (centres unmarked) [MZ1, reference compound] | – | – | 100 | > 10000 | 80
